In patent US11078168B2, “Substituted N-hydroxyamidinoheterocycles as modulators of indoleamine 2,3-dioxygenase” (PHENEX DISCOVERY VERWALTUNGS-GMBH, priority 2016, dated 2021) one finds IC50 data, which are given here for 22 molecules.

Molecules are shown by their SMILES. Bounds are passed on as bounds.

In this experiment the target is T1, Indoleamine 2,3-dioxygenase (Homo sapiens, UniProt P14902).
T1 construct: endogenous in cells; host or cells: SKOV-3 (ATCC HTB-77), stimulated with interferon gamma
T1 sequence (P14902 whole entry): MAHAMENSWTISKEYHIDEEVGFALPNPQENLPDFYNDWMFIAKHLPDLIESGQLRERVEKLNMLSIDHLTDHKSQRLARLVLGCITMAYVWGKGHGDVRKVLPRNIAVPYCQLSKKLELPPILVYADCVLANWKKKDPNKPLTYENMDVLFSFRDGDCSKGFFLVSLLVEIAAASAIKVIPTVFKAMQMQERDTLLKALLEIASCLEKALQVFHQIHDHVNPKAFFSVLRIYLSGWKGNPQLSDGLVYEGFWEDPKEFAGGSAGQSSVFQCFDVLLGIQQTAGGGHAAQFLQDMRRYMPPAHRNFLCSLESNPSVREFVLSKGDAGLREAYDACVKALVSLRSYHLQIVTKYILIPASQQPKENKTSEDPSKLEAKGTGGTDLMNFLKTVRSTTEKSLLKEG
Kind of experiment: SKOV-3 cellular Indoleamine 2,3-dioxygenase assay. The settings on record: SKOV-3 cells, 50 ng/ml Interferon gamma, 100 μM L-Tryptophan, 24 hours, N-Formylkynurenin fluorescence detection; read-out: cell based activity. The essentials:
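SKOV-3 cells stimulated with 50 ng/ml interferon gamma, exposed to compound dilutions with L-tryptophan at 100 µM final for 24 h at 37 °C. N-formylkynurenine detected by 200 mM 3-methylpiperidine, 65 °C for 20 min, fluorescence ex 405/em 535 nm.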
Regarding `CC1(C(=O)NCCSc2nonc2/C(=N/O)Nc2ccc(F)c(C(F)F)c2)CCN1` (stereo not shown) [123/3], the IC50 was below 100 nM.
Under `O=C(NCCSc1nonc1C(=NO)Nc1ccc(F)c(C(F)F)c1)C1CCN1` (stereo not shown) [123/4] stands below 100 nM; under `CC1(C(=O)NCCSc2nonc2C(=NO)Nc2ccc(F)c(C(F)F)c2)CNC1` [123/5], below 100 nM; under `O=C(NCCSc1nonc1C(=NO)Nc1ccc(F)c(C(F)F)c1)C1(F)CNC1` [123/6], below 100 nM.
`NC(CC(=O)NCCSc1nonc1C(=NO)Nc1ccc(F)c(C(F)F)c1)C(F)(F)F` (stereo not shown) [123/7]: the IC50 was below 100 nM.
Take `CS(=N)(=O)CC(=O)NCCSc1nonc1C(=NO)Nc1ccc(F)c(C(F)F)c1` (stereo not shown) [127/1]: the IC50 is below 100 nM.
Under `CS(=N)(=O)CC(=O)NCCSc1nonc1C(=NO)Nc1ccc(F)c(C(F)(F)F)c1` (stereo not shown) [127/2] stands below 100 nM.
The figure for `CS(=N)(=O)CC(=O)NCCSc1nonc1C(=NO)Nc1cccc(Cl)c1` (stereo not shown) [127/3] is below 100 nM; for `CS(=N)(=O)CC(=O)NCCSc1nonc1C(=NO)Nc1cccc(Br)c1` (stereo not shown) [127/4] it is below 100 nM.
For the molecule `NS(=O)(=O)NCC(=O)NCCSc1nonc1C(=NO)Nc1ccc(F)c(C(F)(F)F)c1` [128/1], the IC50 is below 100 nM.
Take `CS(=O)(=O)NCC(=O)NCCSc1nonc1C(=NO)Nc1ccc(F)c(C(F)F)c1` [128/2]: the IC50 was below 100 nM.
Under `CC(=O)N1CC(O)(C(=O)NCCSc2nonc2C(=NO)Nc2ccc(F)c(C(F)F)c2)C1` [128/3] stands below 100 nM.
The figure for `NC(=O)N1CC(O)(C(=O)NCCSc2nonc2C(=NO)Nc2ccc(F)c(C(F)F)c2)C1` [128/4] is 100 to 1000 nM.
Under `CS(=O)(=O)N1CC(O)(C(=O)NCCSc2nonc2C(=NO)Nc2ccc(F)c(C(F)F)c2)C1` [128/5] stands below 100 nM; under `NS(=O)(=O)N1CC(O)(C(=O)NCCSc2nonc2C(=NO)Nc2ccc(F)c(C(F)F)c2)C1` [128/6], below 100 nM; under `NS(=O)(=O)N1CC(C(=O)NCCSc2nonc2C(=NO)Nc2ccc(F)c(C(F)F)c2)C1` [128/7], below 100 nM.
`CS(=O)(=O)NCCOc1nonc1/C(=N/O)Nc1ccc(F)c(Br)c1` [Example 1, N-(3-Bromo-4-fluorophenyl)-N′-hydroxy-4-(2-(methylsulfonamido)ethoxy)-1,2,5-oxadiazole-3-carboximidamide]: the IC50 is below 100 nM.
Under `Nc1c(NCCOc2nonc2C(=NO)Nc2ccc(F)c(Cl)c2)c(=O)c1=O` [Example 2, 4-(2-((2-Amino-3,4-dioxocyclobut-1-en-1-yl)amino)ethoxy)-N-(3-chloro-4-fluorophenyl)-N′-hydroxy-1,2,5-oxadiazole-3-carboximidamide] stands below 100 nM; under `O=C(NCCOc1nonc1C(=NO)Nc1ccc(F)c(Cl)c1)C1COCCN1` (stereo not shown) [Example 3, N-(2-((4-(N-(3-Chloro-4-fluorophenyl)-N′-hydroxycarbamimidoyl)-1,2,5-oxadiazol-3-yl)oxy)ethyl)morpholine-3-carboxamide], 100 to 1000 nM.
Under `NC(=O)C(=O)NCCOc1nonc1C(=NO)Nc1ccc(F)c(Cl)c1` [Example 4, N^1-(2-((4-(N-(3-Chloro-4-fluorophenyl)-N′-hydroxycarbamimidoyl)-1,2,5-oxadiazol-3-yl)oxy)ethyl)oxalamide] stands 100 to 1000 nM; under `NC(=O)NCCOc1nonc1C(=NO)Nc1ccc(F)c(Cl)c1` [Example 5, N-(3-Chloro-4-fluorophenyl)-N′-hydroxy-4-(2-ureidoethoxy)-1,2,5-oxadiazole-3-carboximidamide], below 100 nM.
Consider `NS(=O)(=O)NCCOc1nonc1/C(=N/O)Nc1ccc(F)c(Br)c1` [Example 6, N-(3-Bromo-4-fluorophenyl)-N′-hydroxy-4-(2-(sulfamoylamino)ethoxy)-1,2,5-oxadiazole-3-carboximidamide], for which the IC50 is below 100 nM.
